Experimental data: patent publication US20040116420A1 (priority 2001, published 2004)

How the values were obtained:
[1] = system: HSV-1; assay: Antiviral activity, HSV-1 in Vero cells, plaque method; assay type: cell-based; settings: Human alphaherpesvirus 1, 20 hours, 90% inhibition of plaque formation
Procedure: An Assay Method for Antiviral Activity These complementary assay methods examine the capacity of a compound to inhibit the generation of new viruses and to inhibit the toxicity of the compound against the host cell. Toxicity indirectly decreases the generation of viruses. Thus, it is important to simultaneously conduct both assays in order to directly compare the results. The Vero cells were sown on a 96-well plate and then cultured overnight. The culture supernatant was removed, and 100 μl of 2% FBS-DMEM containing 50,000 plaque-forming units (hereinafter abbreviated as “pfu”) of HSV-1 was added. A viral solution was removed and 200 μl of 2% FBS-DMEM comprising a test compound was added. In this case, a substance to which 2% FBS-DMEM not comprising any test compound had been added was determined as a control. These infected cells were incubated in the presence of 5% CO2 at 37° C. for 20 hours, and the medium was once allowed to freeze at −80° C. The culture solution was dissolved, and the amount of viruses in the culture solution was assayed by the plaque method. The concentration of the test compound when it inhibited 90% of plaque formation relative to the control was determined to be EC 90.

[2] = target: T1, HSV-1 protease (Human herpesvirus 1, UniProt P10210); assay: Enzymatic assay for HSV-1 protease (assembly) inhibitor, fluorescence polarization; assay type: biochemical; settings: read-out: HSV-1 Enzyme inhibition IC50
T1 construct: 6xHis (N); made in house; host or cells: baculovirus expression system
Procedure: An enzymatic assay method for an HSV-1 protease (assembly) inhibitor
The activity of an assembly protease was determined by fluorescence polarization. Biotin-gamma-amino butyrate-[…]-DTAF was used as a fluorescent substrate in accordance with an HSV-1 release and cleavage site. […] Changes in the sizes of fluorescent substrate molecules that increased with the use of avidin as a reaction terminator were assayed by fluorescence polarization.
The test compound was dissolved in DMF, and the resultant was diluted 5-fold with an assay buffer. 6.5 μl thereof was added to wells of a 96-well plate (a U-bottomed 96-well plate, Coster) that had previously been blocked with a blocking solution (10 mM Tris-HCl (pH 8.0), 150 mM sodium chloride, 0.05% Tween 20, 1 mg/ml of BSA). The enzyme was diluted to 21.3 μg/ml with an assay buffer (1M sodium citrate, 50 mM sodium phosphate (pH 7.4), 100 mM sodium chloride, 20% glycerol, 2 mM TCEP), and 48.5 μl of the resultant was added to each well. The plate was incubated at room temperature for 30 minutes, and 10 μl of 62.5 μg/ml substrate solution was then added to each well. The plate was incubated at room temperature for 60 minutes, and 50 μl of 2 mg/ml avidin phosphate buffer solution (50 mM sodium phosphate, 100 mM sodium chloride (pH 7.4)) was added to each well. The activity was determined in comparison with a compound without protease inhibitor using a microplate reader for fluorescence polarization.
HSV-1 protease was purified from a vaculovirus that had expressed a DNA construct encoding the reading frame for HSV-1UL26. This construct had further encoded 6 histidine residues at the amino terminus of the protease. These additional histidine residues impart affinity ligands purified by nickel-nitriloacetic acid-agarose (Qiagen). The purified protease was stored as a stock solution for a 20 mM HEPES buffer (pH 8.5, containing 20% v/v glycerin). This stock solution was diluted with an assay buffer and then used in the enzyme reaction.
In accordance with the cleavage specificity of the HSV-1 protease at the “release site” of the assembled protein, a specific substrate was synthesized (Diianni et al., J. Biol. Chem. 268, 2048 (1993)). This assembly protein-release site had the sequence • HTYLQA*SEKFKMW • , and the substrate used was biotin-gamma-amino butyrate-HTYLQA*SERFRIK-DTAF. This is a standard method for peptide synthesis, for example, as in the a method described in “The Practice of Peptide Synthesis” (Bodansky and Bodansky (1984)). The product was stored as a 2.5 mg/ml stock solution in DMF. The resultant was diluted to 62.5 μg/ml with a phosphate buffer (50 mM sodium phosphate, 100 mM sodium chloride, (pH 7.4)) immediately before its use.
An assay buffer (1M sodium citrate, 50 mM sodium phosphate (pH 7.4), 100 mM sodium chloride, 20% glycerol, 2 mM TCEP) was used to dilute a stock solution for the enzyme and that for the inhibitor.

[3] = system: Vero cells; assay: Cytotoxicity, Vero cells, Alamar Blue; assay type: cell-based; settings: 25 μM, 20 hours
Procedure: An Assay Method for Cytotoxicity
The Vero cells were sown on a 96-well plate and then cultured overnight. The culture supernatant was removed, and 200 μl of 2% FBS-DMEM comprising 25 μM of the test compound was added. In this case, a substance to which 2% FBS-DMEM not comprising any test compound had been added was determined as a control. These cells were incubated in the presence of 5% CO2 at 37° C. for 20 hours. Alamar Blue (20 μl) was added to the cells, and cells were incubated for about 6 hours until the color of the control changed. The ratio of the absorbance was assayed using a microplate reader for absorption, and the value relative to the control was determined to be the ratio of living cells.

T1 sequence (P10210 1-247): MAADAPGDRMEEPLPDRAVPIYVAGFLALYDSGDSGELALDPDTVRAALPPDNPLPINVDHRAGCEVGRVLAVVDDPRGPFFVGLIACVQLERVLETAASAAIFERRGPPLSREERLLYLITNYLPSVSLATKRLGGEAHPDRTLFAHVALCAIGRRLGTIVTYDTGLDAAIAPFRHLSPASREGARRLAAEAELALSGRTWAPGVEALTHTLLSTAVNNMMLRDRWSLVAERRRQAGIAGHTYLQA

Row | Structure (SMILES) | EC90 [1] [µM] | IC50 [2] [µM] | Cell viability (% of control) [3] [%]
1 | Cc1c(NC(=O)c2scc(S(=O)(=O)C(C)C)c2Cl)ccc2nc(NC(C)(C)C(=O)N(C)CCc3ccccn3)oc(=O)c12 [Compound No.180, 3-Chloro-4-(propane-2-sulfonyl)-thiophene-2-carboxylic acid (5-methyl-2-{1-methyl-1-[methyl-(2-pyridin-2-yl-ethyl)-carbamoyl]-ethylamino}-4-oxo-4H-benzo[d][1,3]oxazin-6-yl)-amide] | > 12.5 | 1.9 | 87.4
2 | Cc1c(NC(=O)OC(C)(C)C)ccc2nc(N3Cc4ccccc4C[C@H]3C(=O)NCCc3ccccn3)oc(=O)c12 [Compound No.97, {5-Methyl-4-oxo-2-[3S-(2-pyridin-2-yl-ethylcarbamoyl)-3,4-dihydro-1H-isoquinolin-2-yl]-4H-benzo[d][1,3]oxazin-6-yl}-carbamic acid tert-butyl ester] | 11 | 3.3 | 51.3
3 | Cc1c(NC(=O)C2CCC2)ccc2nc(NC(C)(C)C(=O)N(C)CCc3ccccn3)oc(=O)c12 [Compound No.198, Cyclobutanecarboxylic acid (5-methyl-2-{1-methyl-1-[methyl-(2-pyridin-2-yl-ethyl)-carbamoyl]-ethylamino}-4-oxo-4H-benzo[d][1,3]oxazin-6-yl)-amide] | ≥ 12.5 | 3.6 | 99.2
4 | Cc1c(NC(=O)OC(C)(C)C)ccc2nc(N[C@@H](Cc3ccccc3)C(=O)NCc3ccncc3)oc(=O)c12 [Compound No.31, (5-Methyl-4-oxo-2-{2-phenyl-1S-[(pyridin-4-ylmethyl)-carbamoyl]-ethylamino}-4H-benzo[d][1,3]oxazin-6-yl)-carbamic acid tert-butyl ester] | > 25 | > 20 | 108.0
5 | Cc1c(NC(=O)OC(C)(C)C)ccc2nc(N3Cc4ccccc4C[C@H]3C(=O)NCc3cccnc3)oc(=O)c12 [Compound No.95, (5-Methyl-4-oxo-2-{3S-[(pyridin-3-ylmethyl)-carbamoyl]-3,4-dihydro-1H-isoquinolin-2-yl}-4H-benzo[d][1,3]oxazin-6-yl)-carbamic acid tert-butyl ester] | 12.3 | 4.4 | 44.0
6 | Cc1c(NC(=O)OC(C)(C)C)ccc2nc(N3CCC[C@H]3C(=O)NCc3ccccn3)oc(=O)c12 [Compound No.86, (5-Methyl-4-oxo-2-{2S-[(pyridin-2-ylmethyl)-carbamoyl]-pyrrolidin-1-yl}-4H-benzo[d][1,3]oxazin-6-yl)-carbamic acid tert-butyl ester] | > 12.5 | 1.1 | 94.6
7 | Cc1c(NC(=O)OC(C)(C)C)ccc2nc(N[C@H](C(=O)N(C)CCc3ccncc3)C(C)(C)C)oc(=O)c12 [Compound No.52, (2-{2,2-Dimethyl-1S-[methyl-(2-pyridin-4-yl-ethyl)-carbamoyl]-propylamino}-5-methyl-4-oxo-4H-benzo[d][1,3]oxazin-6-yl)-carbamic acid tert-butyl ester] | 6 | 49 | 64.5
8 | Cc1c(NC(=O)c2cccc(F)c2)ccc2nc(NC(C)(C)C(=O)N(C)CCc3ccccn3)oc(=O)c12 [Compound No.148, 3-Fluoro-N-(5-methyl-2-{1-methyl-1-[methyl-(2-pyridin-2-yl-ethyl)-carbamoyl]-ethylamino}-4-oxo-4H-benzo[d][1,3]oxazin-6-yl)-benzamide] | 10.3 | 1.5 | 54.6
9 | Cc1c(NC(=O)CCCNC(=O)OC(C)(C)C)ccc2nc(NC(C)(C)C(=O)N(C)CCc3ccccn3)oc(=O)c12 [Compound No.203, [3-(5-Methyl-2-{1-methyl-1-[methyl-(2-pyridin-2-yl-ethyl)-carbamoyl]-ethylamino}-4-oxo-4H-benzo[d][1,3]oxazin-6-ylcarbamoyl)-propyl]-carbamic acid tert-butyl ester] | > 12.5 | 0.4 | –
10 | Cc1c(NC(=O)OC(C)(C)C)ccc2nc(N(C)CC(=O)N(C)CCc3ccccn3)oc(=O)c12 [Compound No.131, [5-Methyl-2-(methyl-{[methyl-(2-pyridin-2-yl-ethyl)-carbamoyl]-methyl}-amino)-4-oxo-4H-benzo[d][1,3]oxazin-6-yl]-carbamic acid tert-butyl ester] | > 20 | 0.4 | –
11 | Cc1c(NC(=O)OC(C)(C)C)ccc2nc(NC3(C(=O)N(C)CCc4cccnc4)CCCC3)oc(=O)c12 [Compound No.126, (5-Methyl-2-{1-[methyl-(2-pyridin-3-yl-ethyl)-carbamoyl]-cyclopentylamino}-4-oxo-4H-benzo[d][1,3]oxazin-6-yl)-carbamic acid tert-butyl ester] | 8.6 | 0.4 | –
12 | Cc1c(NC(=O)c2cccs2)ccc2nc(NC(C)(C)C(=O)N(C)CCc3ccccn3)oc(=O)c12 [Compound No.134, Thiophene-2-carboxylic Acid (5-methyl-2-{1-methyl-1-[methyl-(2-pyridin-2-yl-ethyl)-carbamoyl]-ethylamino}-4-oxo-4H-benzo[d][1,3]oxazin-6-yl)-amide] | > 12.5 | 0.9 | –
13 | Cc1c(NC(=O)OC(C)(C)C)ccc2nc(NC3(C(=O)N(C)CCc4ccccn4)CCCC3)oc(=O)c12 [Compound No.123, (5-Methyl-2-{1-[methyl-(2-pyridin-2-yl-ethyl)-carbamoyl]-cyclopentylamino}-4-oxo-4H-benzo[d][1,3]oxazin-6-yl)-carbamic acid tert-butyl ester] | 9.6 | 0.6 | –
14 | Cc1c(NC(=O)OC(C)(C)C)ccc2nc(NC3(C(=O)N(C)Cc4cccnc4)CCCC3)oc(=O)c12 [Compound No.119, {5-Methyl-2-[1-(methyl-pyridin-3-ylmethyl-carbamoyl)-cyclopentylamino]-4-oxo-4H-benzo[d][1,3]oxazin-6-yl}-carbamic acid tert-butyl ester] | > 12.5 | 0.7 | –
15 | Cc1c(NC(=O)CCNC(=O)OCc2ccccc2)ccc2nc(NC(C)(C)C(=O)N(C)CCc3ccccn3)oc(=O)c12 [Compound No.202, [2-(5-Methyl-2-{1-methyl-1-[methyl-(2-pyridin-2-yl-ethyl)-carbamoyl]-ethylamino}-4-oxo-4H-benzo [d][1,3]oxazin-6-ylcarbamoyl)-ethyl]-carbamic acid benzyl ester] | > 12.5 | 0.5 | –
16 | Cc1c(NC(=O)CCCNC(=O)c2ccncc2)ccc2nc(NC(C)(C)C(=O)N(C)CCc3ccccn3)oc(=O)c12 | > 12.5 | 0.5 | –
